Structures can show the parent of a compound that is named as a salt.

The melting point is the temperature of the solid-liquid transition. `CN1CC[C@H]1COc1cnc(Cl)c(-c2ccc(Cl)cc2)c1` (as salt: citrate) [Example 143, 6-Chloro-5-(4-chlorophenyl)-3-(1-methyl-2-(S)-azetidialmethoxy)pyridine Citrate] yielded a melting point of 78 to 79 °C. In the case of `Clc1ncc(OC[C@@H]2CCN2)cc1C=Cc1ccncc1` (as salt: citric acid salt) [Example 89, 5-(2-(4-Pyridinyl)ethenyl)-6-chloro-3-(2-(S)-azetidnylmethoxy)pyridine Citric Acid Salt] it was 195 to 197 °C. In turn, `CN1CCC[C@H]1COc1cncc(-c2ccco2)c1` (as salt: hydrochloride) [Example 5, 5-(2-Furanyl-3-(1-methyl-2-(S)-pyrrolidinylmethoxy)pyridine Dihydrochloride] displayed a melting point of 189 to 191 °C.

Compound `CN1CCC[C@H]1COc1cncc(-c2cccs2)c1` (as salt: hydrochloride) [Example 6, 5-(2-Thienyyl)-3-(1-methyl-2-(S)-pyrrolidinylmethoxy)pyridine Dihydrochloride] had a melting point of 201 to 203 °C. `CN1CCC[C@H]1COc1cncc(C=Cc2ccncc2)c1` (as salt: hydrochloride) [Example 13, 5-(2-(4-Pyridinyl)ethenylyl)-3-((1-methyl-2-(S)-pyrrolidinylmethoxy)pyridine Triihydrochloride]: the melting point is 187 to 190 °C. In the case of `CN1CCC[C@H]1COc1cncc(C#CCCCC#N)c1` (as salt: hydrochloride) [Example 14, (5-(5-Cyano-1-pentynyl-3-(1-methyl-2-(S)-pyrrolidinylmethoxy)pyridine Dihydrochloride], the melting point lay in the range of 165 to 167 °C. In the case of `COC(=O)C=Cc1cncc(OC[C@@H]2CCCN2C)c1` (as salt: hydrochloride) [Example 16, 5-(2-(Methoxycarbonyl)ethenyl-3-(1-methyl-2-(S)-pyrrolidinylmethoxy)pyridine Dihydrochloride], the melting point fell in the range of 128 to 130 °C. The compound `COC(=O)c1cncc(OC[C@@H]2CCCN2C)c1` (as salt: hydrochloride) [Example 27, 5-Methoxycarbonol-3-(1-methyl-2-(S)-pyrrolidinylmethoxy)pyridine Dihydrochloride] came in with a melting point of 165 to 167 °C. `CN1CCC[C@H]1COc1cncc(CCc2ccncc2)c1` (as salt: hydrochloride) [Example 29, 5-(2-(4-Pyridinnyl)ethyl)-3-(1-methyl-2-(S)-pyrrolidinnylmethoxy)pyridine Trihydrochloride] showed a melting point of 148 to 150 °C.

The compound `CN1CCC[C@H]1COc1cncc(-c2ccc3ccccc3c2)c1` (as salt: hydrochloride) [Example 31, 5-(2-Naphthalenyl-3-(1-methyl-2-(S)-pyrrolidinylmethoxy)pyridine Dihydrochloride] registered a melting point of 248 to 251 °C. Consider `CN1CCC[C@H]1COc1cncc(-c2cnc3ccccc3c2)c1` (as salt: hydrochloride) [Example 35, 5-(3-Ouinolinyl)-3-(1-methyl-2-(S)-pyrrolidinylmethoxy)pyridine Trihydrochloride], for which the melting point lay in the range of 184 to 186 °C. `CN1CCC[C@H]1COc1cncc(-c2cc(C(F)(F)F)cc(C(F)(F)F)c2)c1` (as salt: hydrochloride) [Example 37, 5-(3,5-bis(Trifluoromehyl)phenyl)-3-(1-methyl-2-(S)-pyrrolidinylmethoxy)pyridine Dihydrochloride] returned a melting point of 68 to 70 °C. Regarding `CN1CCC[C@H]1COc1cncc(-c2ccc(F)c(Cl)c2)c1` (as salt: hydrochloride) [Example 42, 5-(3-Chloro-4-fluorolphenyl)-3-(1-methyl-2-(S)-pyrrolidinylmethoxy)pyridine Dihydrochloride], the melting point lay within 202 to 204 °C. As to `CN1CCC[C@H]1COc1cnc(Cl)c(C=Cc2ccncc2)c1` (as salt: hydrochloride) [Example 50, 5-(2-(4-Pyridinyl)ethenyl)-6-chloro-3-(1-methyl-(2-(S)-pyrrolidinylmethoxy)pyridine Dihydrochloride], the melting point was in the range of 218 to 222 °C. In the case of `CCCCCCC#Cc1cncc(OC[C@@H]2CCN2)c1` (as salt: hydrochloride) [Example 63, 5-Octynyl-3-(2-(S)-azetidinylmethoxy)pyridine Dihydrochloride] it was 88 to 90 °C; in that of `CN1CCC[C@@H]1COc1cnc(Cl)c(-c2ccc(Cl)cc2)c1` (as salt: hydrochloride) [Example 76, 5-(4-Clhorophenyl)-6-chloro-3-(1-methyl-2-(R)-pyrrolidinylmethoxy)pyridine Hydrochloride], 176 to 178 °C; in that of `CN1CCC[C@@H]1COc1cnc(Cl)c(C=Cc2ccncc2)c1` (as salt: hydrochloride) [Example 82, 5-(2-(4-Pyridinnyl)ethenyl)-6-chloro-3-(1-methyl-2-(R)-pyrrolidinylmethoxy)pyridine Dihydrochloride], 220 to 222 °C (dec.). `CC(C)(C)C=CC=Cc1cc(OC[C@@H]2CCCN2)cnc1Cl` (as salt: hydrochloride) [Example 148, 6-Chloro-5-(5,5dimethyl-1,3-hexadienyl)-3-(2-(S)-pyrrilidinylmethoxy)pyridine Dihydrochloride]: the melting point was in the range of 206 to 208 °C. Turning to `Clc1ncc(OC[C@@H]2CCCN2)cc1-c1cccs1` (as salt: hydrochloride) [Example 152, 6-Chloro-3-(2-(S)-pyrrolidinolmethoxy)-5-(2-thienyl)pyridine Dihydrochloride], the melting point lay within 208 to 210 °C. As for `CC(C)(C)C=CC=Cc1cncc(OC[C@@H]2CCN2)c1` (as salt: hydrochloride) [Example 163, 3-(2-(S)-Azetidinylmethoxy)-5-(5,5-dimethyl-1,3-hexadiene)pyridine Dihydrochloride], the figure is 142 to 144 °C; as for `CN1CC[C@H]1COc1cncc(C=CC=CC(C)(C)C)c1` (as salt: hydrochloride) [Example 166, 5-(5,5-Dimethyl-1,3-hexadiene)-3-(1-methyl-2-(S)-azetidinylmethoxy)pyridine Dihydrochloride], 143 to 145 °C; as for `C#Cc1cc(OC[C@@H]2CCCN2)cnc1Cl` (as salt: hydrochloride) [Example 194, 6-Chloro-5-(ethynyl-3-(2-(S)-pyrrolidinylmethoxy)pyridine Hydrochloride], 214 to 216 °C. `COCCOc1cncc(OC[C@@H]2CCCN2C)c1` (as salt: hydrochloride) [Example 198, 5-Methoxyethoxy-3-(1-methyl-(2S)-pyrrolidinylmethoxy)pyridine Dihydrochloride] had a melting point of 196 to 197 °C. As for `Nc1cccc(-c2cncc(OC[C@@H]3CCN3)c2)c1` (as salt: salt) [Example 65, 5-(3-Aminophenyl)-3-(2-(S)-azetidinylmethoxy)pyridine Hidrochloride], the melting point was in the range of 85 to 87 °C. As for `Clc1ncc(OC[C@@H]2CCN2)cc1-c1ccccc1` (as salt: salt) [Example 67, 5-Phenyl-6-chloro-3-(2-(S)-azetidinylmethoxy)pyridine Hidrochloride], the melting point lay in the range of 148 to 150 °C.

The values are drawn from patent US6437138B1, “3-pyridyloxymethyl heterocyclic ether compounds useful in controlling chemical synaptic transmission” (priority 1996, dated 2002).
